Results reported in patent publication US10227345B2, “Compounds and methods for inhibiting fascin” (Cornell University, priority 2014, dated 2019).

Assays:
[1] = system: MDA-MB-231 human breast tumor cells; assay: Boyden-chamber cell migration assay; assay type: cell-based; settings: migration 6 h
Procedure: Certain tumor cells with fascin expression are listed below.
Exemplifying procedure: MDA-MB-231 cells (5×10^4) or 4T1 Cells (1×10^5) were suspended in 100 μl starvation medium and added to the upper chamber of an insert (6.5 mm diameter, 8 μm pore size; Becton Dickson). The insert was placed in a 24-well plate containing 700 μL starvation medium with or without 10% FBS. […] Migration assays were performed for 6 h and cells are fixed with 3.7% formaldehyde. Cells were stained with crystal violet staining solution, and cells on the upper side of the insert were removed with a cotton swab. Three randomly selected fields (×10 objectives) on the lower side of the insert were photographed, and the migrated cells were counted. Migration was expressed as average number of migrated cells in a field.

human fascin 1 = target: T1, human fascin 1 (Homo sapiens, UniProt Q16658); assay: Fascin inhibition (actin bundling) assay, image-based; assay type: biochemical; settings: in the presence of 50 μm of the compound relative to bundle activity when the compound was not present; read-out: Inhibition (percentage reduction of bundle activity)
T1 construct: GST (N, cleaved yes); made in house; host or cells: Escherichia coli BL21/DE3 (pGEX4T-fascin 1 plasmid)
How it was run: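 GST-tagged human fascin 1 from E. coli, thrombin-cleaved, was preincubated with compounds for 30 min, then polymerized actin was added; compounds were at 30 μM final. Bundles captured on poly-D-lysine plates were imaged, and background-corrected bundle length per well was computed, with DMSO-only wells as negative controls.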

| SMILES | IC50 [1] | inhibition at 50 µM (human fascin 1) |
| --- | --- | --- |
| O=C(Nc1nn(Cc2ccc(C(F)(F)F)cc2)c2ccccc12)c1ccno1 [Compound 25, N-(1-(4-(trifluoromethyl)benzyl)-1H-indazol-3-yl)isoxazole-5-carboxamide] | 54 µM | 100% |
| Cc1nocc1C(=O)Nc1nn(Cc2ccc(C(F)(F)F)cc2)c2ccccc12 [Compound 35, 3-methyl-N-(1-(4-(trifluoromethyl)benzyl)-1H-indazol-3-yl)isoxazole-4-carboxamide] | 18 µM | 100% |
| O=C(Nc1nn(Cc2ccc(C(F)(F)F)cc2)c2ccccc12)c1cccnn1 [Compound 49, N-(1-(4-(trifluoromethyl)benzyl)-1H-indazol-3-yl)pyridazine-3-carboxamide] | 13 µM | 100% |
| Cc1nocc1C(=O)Nc1nn(Cc2ccc(Cl)cc2)c2ccccc12 [Compound 65, N-(1-(4-chlorobenzyl)-1H-indazol-3-yl)-3-methylisoxazole-4-carboxamide] | 64 µM | 90% |
| O=C(Nc1nn(Cc2ccc(Cl)cc2)c2ccccc12)c1ccno1 [Compound 66, N-(1-(4-chlorobenzyl)-1H-indazol-3-yl)isoxazole-5-carboxamide] | 161 µM | 100% |
| CCCC(=O)Nc1nn(Cc2ccc(C(F)(F)F)cc2)c2cncc(Cl)c12 [Compound 153, N-(4-chloro-1-(4-(trifluoromethyl)benzyl)-1H-pyrazolo[3,4-c]pyridin-3-yl)butyramide] | – | 10% |
| N#Cc1ccc2c(c1)c(NC(=O)c1cccnn1)nn2Cc1ccc(C(F)(F)F)nc1 [N-(5-cyano-1-((6-(trifluoromethyl)pyridin-3-yl)methyl)-1H-indazol-3-yl)pyridazine-3-carboxamide] | – | < 10% |
